Measured values as given in patent US6288091A, “Antiherpes virus compounds and methods for their preparation and use” (Boehringer Ingelheim Ltd., priority 1999, dated 2001).
Where two headings read alike, the source gives them in different places.

Tests used:
HSV-1 strain F or KOS = experiment: Inhibition of herpes simplex virus (HSV-1) replication in cell culture (BHK-21 cells, glycoprotein C ELISA); type: cell-based
Procedure, shortened: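 Replication readout: ELISA for HSV-1 late glycoprotein C (mAb C11, peroxidase-OPD, 450 nm) on glutaraldehyde-fixed cells. Monolayers (~50,000 cells/well) were infected with strain F or KOS (MOI 0.05 PFU/cell), then incubated 24 h at 37° with compound in 2% FBS α-MEM. EC50 derived from % inhibition.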

HCMV (strain AD169) = experiment: Inhibition of HCMV replication, plaque reduction assay (PRA, Hs-68 cells); type: cell-based, Human Cytomegalovirus (HCMV); settings: read-out: PRA CMV EC50
Procedure, shortened: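 Hs-68 monolayers (80–90% confluent) were infected with ~50 PFU HCMV AD169 for 2 h at 37°, then given compound in DMEM/5% inactivated FBS, refreshed after 4 days and kept 4 more days. Plaques were counted after formaldehyde fixation and crystal violet staining. EC50 derives from percent plaque reduction versus untreated wells.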

[1] = Human alphaherpesvirus 1, BHK-21, Group 1 Table 3 entries
[2] = Human betaherpesvirus 5, AD169, Hs68, Group 1 Table 3 entries
[3] = Human alphaherpesvirus 1, BHK-21, Group 1 Table 2 entries
[4] = Human betaherpesvirus 5, AD169, Hs68, Group 1 Table 2 entries
[5] = Human alphaherpesvirus 1, BHK-21, Group 1 Table 1 entries
[6] = Human betaherpesvirus 5, AD169, Hs68, Group 1 Table 1 entries
[7] = Human alphaherpesvirus 1, BHK-21, Group 1 Table 5 entries
[8] = Human betaherpesvirus 5, AD169, Hs68, Group 1 Table 5 entries

| SMILES | EC50 (HSV-1 strain F or KOS; [3]) | EC50 (HCMV (strain AD169); [4]) | EC50 (HSV-1 strain F or KOS; [5]) | EC50 (HCMV (strain AD169); [6]) | other results |
| --- | --- | --- | --- | --- | --- |
| CN(C(=O)CN(Cc1ccccc1)C(=O)C1CCCCC1)c1ccc(-c2csc(N)n2)cc1 [Example 1] |  |  |  |  | EC50 (HSV-1 strain F or KOS; [1]): 0.016 µM; EC50 (HCMV (strain AD169); [2]): 24 µM |
| Nc1nc(-c2ccc(NC(=O)CCNCc3ccccc3)cc2)cs1 [Example 1] | 6 µM | 30 µM |  |  |  |
| Nc1nc(-c2ccc(NC(=O)CNCc3ccccc3)cc2)cs1 [Example 1] |  |  | 2.7 µM | > 60 µM |  |
| Nc1nc(-c2ccc(NC(=O)CCN(Cc3ccccc3)Cc3ccccc3)cc2)cs1 [Example 2] | 2.2 µM | 4.7 µM |  |  |  |
| CC(C)(C)OC(=O)N[C@@H](Cc1ccccc1)C(=O)Nc1ccc(-c2csc(N)n2)cc1 [Example 3] |  |  |  |  | EC50 (HSV-1 strain F or KOS; [7]): 0.016 µM; EC50 (HCMV (strain AD169); [8]): 24 µM |
| Nc1nc(-c2ccc(NC(=O)CCN(Cc3ccccc3)C(=O)c3ccccc3)cc2)cs1 [Example 3] | 2.2 µM | 9.2 µM |  |  |  |
| Nc1nc(-c2ccc(NC(=O)CNCCCc3ccccc3)cc2)cs1 [Example 3] |  |  | 18 µM | > 14 µM |  |
| CC(C)(C)OC(=O)N[C@H](Cc1ccccc1)C(=O)Nc1ccc(-c2csc(N)n2)cc1 [Example 4] |  |  |  |  | EC50 (HSV-1 strain F or KOS; [7]): 0.57 µM; EC50 (HCMV (strain AD169); [8]): 22 µM |
| Nc1nc(-c2ccc(NC(=O)CCNCc3cccc(F)c3)cc2)cs1 [Example 4] | 2.2 µM | > 3.7 µM |  |  |  |
| O=C(CN(Cc1ccccc1)C(=O)C1CCCCC1)Nc1ccc(-c2cscn2)cc1 [Example 5] |  |  |  |  | EC50 (HSV-1 strain F or KOS; [1]): 0.012 µM; EC50 (HCMV (strain AD169); [2]): 16 µM |
| CNc1nc(-c2ccc(NC(=O)CN(Cc3ccccc3)C(=O)c3ccccc3)cc2)cs1 [Example 6] |  |  |  |  | EC50 (HSV-1 strain F or KOS; [1]): 0.012 µM; EC50 (HCMV (strain AD169); [2]): 16 µM |
| Nc1nc(-c2ccc(NC(=O)[C@H](Cc3ccccc3)NCc3ccccc3)cc2)cs1 [Example 6] |  |  |  |  | EC50 (HSV-1 strain F or KOS; [7]): 0.83 µM; EC50 (HCMV (strain AD169); [8]): 7 µM |
| CN[C@@H](Cc1ccccc1)C(=O)Nc1ccc(-c2csc(N)n2)cc1 [Example 8] |  |  |  |  | EC50 (HSV-1 strain F or KOS; [7]): 14 µM; EC50 (HCMV (strain AD169); [8]): 33 µM |
| Nc1nc(-c2ccc(NC(=O)CCN(Cc3ccccc3)C(=O)C3CCCCC3)cc2)cs1 [Example 8] | 1.1 µM | 13 µM |  |  |  |
| Nc1nc(-c2ccc(NC(=O)[C@@H](Cc3ccccc3)N(Cc3ccccc3)C(=O)C3CCCCC3)cc2)cs1 [Example 9] |  |  |  |  | EC50 (HSV-1 strain F or KOS; [7]): 0.29 µM; EC50 (HCMV (strain AD169); [8]): 8.7 µM |
| C[C@H](NCC(=O)Nc1ccc(-c2csc(N)n2)cc1)c1ccccc1 [Example 10] |  |  | 2.2 µM | > 30 µM |  |
| Nc1nc(-c2ccc(NC(=O)CCNC3Cc4ccccc4C3)cc2)cs1 [Example 10] | 3.9 µM | 14 µM |  |  |  |
| CN(C)c1nc(-c2ccc(NC(=O)CN(Cc3ccccc3)C(=O)c3ccccc3)cc2)cs1 [Example 11] |  |  |  |  | EC50 (HSV-1 strain F or KOS; [1]): 0.024 µM; EC50 (HCMV (strain AD169); [2]): 18 µM |
| C[C@@H](NCC(=O)Nc1ccc(-c2csc(N)n2)cc1)c1ccccc1 [Example 11] |  |  | 1.3 µM | 19 µM |  |
| Nc1nc(-c2ccc(NC(=O)CCN(C(=O)c3cccnc3)C3Cc4ccccc4C3)cc2)cs1 [Example 12] | 7.6 µM | 8 µM |  |  |  |
| CC(C)(C)OC(=O)N(CCC(=O)Nc1ccc(-c2csc(N)n2)cc1)C1Cc2ccccc2C1 [Example 14] | 1.8 µM | > 28 µM |  |  |  |

| SMILES | EC50 (HSV-1 strain F or KOS; [3]) | EC50 (HCMV (strain AD169); [4]) | EC50 (HSV-1 strain F or KOS; [5]) | EC50 (HCMV (strain AD169); [6]) | other results |
| --- | --- | --- | --- | --- | --- |
| CC(C)(C)OC(=O)N(CCC(=O)Nc1ccc(-c2csc(N)n2)cc1)Cc1ccccc1 [Example 15] | 0.64 µM | 9 µM |  |  |  |
| CN(CC(=O)Nc1ccc(-c2csc(N)n2)cc1)Cc1ccccc1 [Example 15] |  |  | 0.95 µM | 6.5 µM |  |
| Nc1nc(-c2ccc(NC(=O)CCN(Cc3ccccc3)C(=O)OCc3ccccc3)cc2)cs1 [Example 16] | 2.6 µM | 8 µM |  |  |  |
| Nc1nc(-c2ccc(NC(=O)CN(Cc3ccccc3)Cc3ccccc3)cc2)cs1 [Example 16] |  |  | 0.45 µM | 13 µM |  |
| Nc1nc(-c2ccc(NC(=O)CCN(Cc3ccccc3)CC3CCCCC3)cc2)cs1 [Example 17] | 1.8 µM | > 5 µM |  |  |  |
| CC(=O)Nc1nc(-c2ccc(NC(=O)CN(Cc3ccccc3)C(C)=O)cc2)cs1 [Example 18] |  |  |  |  | EC50 (HSV-1 strain F or KOS; [1]): > 30 µM; EC50 (HCMV (strain AD169); [2]): > 81 µM |
| C[C@@H](c1ccccc1)N(CCC(=O)Nc1ccc(-c2csc(N)n2)cc1)C(=O)OC(C)(C)C [Example 18] | 1.6 µM | 3.3 µM |  |  |  |
| C[C@@H](c1ccccc1)N(CCC(=O)Nc1ccc(-c2csc(N)n2)cc1)Cc1ccccc1 [Example 19] | 0.89 µM | 4 µM |  |  |  |
| CC(C)c1nc(-c2ccc(NC(=O)CN(Cc3ccccc3)C(=O)c3ccccc3)cc2)cs1 [Example 20] |  |  |  |  | EC50 (HSV-1 strain F or KOS; [1]): > 25 µM; EC50 (HCMV (strain AD169); [2]): 70 µM |
| C[C@H](NCCC(=O)Nc1ccc(-c2csc(N)n2)cc1)c1ccccc1 [Example 20] | 1.3 µM | 13 µM |  |  |  |
| CC(C)(C)OC(=O)N(CCC(=O)Nc1ccc(-c2csc(N)n2)cc1)CC1CCCCC1 [Example 21] | 0.45 µM | 6.5 µM |  |  |  |
| CN(CC(=O)Nc1ccc(-c2csc(N)n2)cc1)C(=O)c1ccncc1 [Example 22] |  |  | 1.8 µM | 110 µM |  |
| Nc1nc(-c2ccc(NC(=O)CCNCC3CCCCC3)cc2)cs1 [Example 22] | 6 µM | > 6 µM |  |  |  |
| CCCC(CCC)NCCC(=O)Nc1ccc(-c2csc(N)n2)cc1 [Example 23] | 6 µM | > 9 µM |  |  |  |
| Nc1nc(-c2ccc(NC(=O)CN(Cc3ccccc3)C(=O)c3ccccc3)cc2)cs1 [Example 23] |  |  | 0.007 µM | 36 µM |  |
| Nc1nc(-c2ccc(NC(=O)CCN(CC3CCCCC3)C(=O)c3cccnc3)cc2)cs1 [Example 24] | 1.7 µM | 31 µM |  |  |  |
| Nc1nc(-c2ccc(NC(=O)CN(Cc3ccccc3)C(=O)c3ccc(F)cc3)cc2)cs1 [Example 24] |  |  | 0.002 µM | 15 µM |  |
| C[C@@H](NCCC(=O)Nc1ccc(-c2csc(N)n2)cc1)c1ccccc1 [Example 25] | 2.6 µM | > 6 µM |  |  |  |
| Nc1nc(-c2ccc(NC(=O)CN(Cc3ccccc3)C(=O)Cc3ccccc3)cc2)cs1 [Example 26] |  |  | 0.05 µM | 15 µM |  |
| Nc1nc(-c2ccc(NC(=O)CN(Cc3ccccc3)C(=O)c3ccccn3)cc2)cs1 [Example 27] |  |  | 0.28 µM | > 36 µM |  |
| Nc1nc(-c2ccc(NC(=O)CN(Cc3ccccc3)C(=O)c3cccnc3)cc2)cs1 [Example 28] |  |  | 0.13 µM | 35 µM |  |

| SMILES | EC50 (HSV-1 strain F or KOS; [3]) | EC50 (HCMV (strain AD169); [4]) | EC50 (HSV-1 strain F or KOS; [5]) | EC50 (HCMV (strain AD169); [6]) | other results |
| --- | --- | --- | --- | --- | --- |
| Nc1nc(-c2ccc(NC(=O)CN(Cc3ccccc3)C(=O)c3ccncc3)cc2)cs1 [Example 29] |  |  | 0.035 µM | 27 µM |  |
| Nc1nc(-c2ccc(NC(=O)CN(Cc3ccccc3)C(=O)c3cc[n+]([O-])cc3)cc2)cs1 [Example 30] |  |  | 0.43 µM | > 88 µM |  |
| Nc1nc(-c2ccc(NC(=O)CN(Cc3ccccc3)C(=O)Cc3ccccn3)cc2)cs1 [Example 31] |  |  | 0.4 µM | 8.1 µM |  |
| Nc1nc(-c2ccc(NC(=O)CN(Cc3ccccc3)C(=O)c3cccs3)cc2)cs1 [Example 32] |  |  | 0.04 µM | 8.5 µM |  |
| Nc1nc(-c2ccc(NC(=O)CN(Cc3ccccc3)C(=O)c3cnccn3)cc2)cs1 [Example 33] |  |  | 0.17 µM | 20 µM |  |
| Nc1nc(-c2ccc(NC(=O)CN(Cc3ccccc3)C(=O)C3CCCCC3)cc2)cs1 [Example 34] |  |  | 0.004 µM | 15 µM |  |
| Nc1nc(-c2ccc(NC(=O)CN(Cc3ccccc3)C(=O)C3CCCC3)cc2)cs1 [Example 36] |  |  | 0.005 µM | 16 µM |  |
| Nc1nc(-c2ccc(NC(=O)CN(Cc3ccccc3)C(=O)CC3CCCCC3)cc2)cs1 [Example 38] |  |  | 0.016 µM | 4.6 µM |  |
| Nc1nc(-c2ccc(NC(=O)CN(Cc3ccccc3)C(=O)CC3CCCC3)cc2)cs1 [Example 39] |  |  | 0.009 µM | 8.5 µM |  |
| CC(C)(C)C(=O)N(CC(=O)Nc1ccc(-c2csc(N)n2)cc1)Cc1ccccc1 [Example 41] |  |  | 0.036 µM | 34 µM |  |
| CC(C)(C)CC(=O)N(CC(=O)Nc1ccc(-c2csc(N)n2)cc1)Cc1ccccc1 [Example 42] |  |  | 0.002 µM | 20 µM |  |
| CC(C)C(=O)N(CC(=O)Nc1ccc(-c2csc(N)n2)cc1)Cc1ccccc1 [Example 43] |  |  | 0.13 µM | 13 µM |  |
| CC(=O)N(CC(=O)Nc1ccc(-c2csc(N)n2)cc1)Cc1ccccc1 [Example 44] |  |  | 0.75 µM | 37 µM |  |
| Nc1nc(-c2ccc(NC(=O)CN(Cc3ccccn3)C(=O)C3CCCCC3)cc2)cs1 [Example 47] |  |  | 0.013 µM | > 103 µM |  |
| Nc1nc(-c2ccc(NC(=O)CN(Cc3cccnc3)C(=O)C3CCCCC3)cc2)cs1 [Example 48] |  |  | 0.04 µM | 49 µM |  |
| Nc1nc(-c2ccc(NC(=O)CN(Cc3ccncc3)C(=O)C3CCCCC3)cc2)cs1 [Example 49, N-{2-{{4-(2-amino-4-thiazolyl)phenyl}amino}-2-oxoethyl}-N-(4-pyridinylmethyl)cyclohexanecarboxamide] |  |  | 0.012 µM | 23 µM |  |
| Nc1nc(-c2ccc(NC(=O)CN(CCc3ccccn3)C(=O)C3CCCCC3)cc2)cs1 [Example 50] |  |  | 0.068 µM | 13 µM |  |
| Nc1nc(-c2ccc(NC(=O)CN(Cc3cccs3)C(=O)C3CCCCC3)cc2)cs1 [Example 51] |  |  | 0.002 µM | 11 µM |  |
| C[C@H](c1ccccc1)N(CC(=O)Nc1ccc(-c2csc(N)n2)cc1)C(=O)C1CCCCC1 [Example 52] |  |  | 0.013 µM | 6 µM |  |
| C[C@@H](c1ccccc1)N(CC(=O)Nc1ccc(-c2csc(N)n2)cc1)C(=O)C1CCCCC1 [Example 53] |  |  | 0.003 µM | 12 µM |  |
